Source: patent US11524966B1 (Valo Early Discovery, Inc., priority 2017, dated 2022)

Target: T1, USP28 (His-tagged USP28-FL-mammalian) (Homo sapiens, UniProt Q96RU2)
T1 construct: Expression of USP28 (1-1077)-TEV-6*His (pTT5 vector); made in house; host or cells: Expi293f cells (pTT5 vector)
T1 sequence (Q96RU2 1-1077): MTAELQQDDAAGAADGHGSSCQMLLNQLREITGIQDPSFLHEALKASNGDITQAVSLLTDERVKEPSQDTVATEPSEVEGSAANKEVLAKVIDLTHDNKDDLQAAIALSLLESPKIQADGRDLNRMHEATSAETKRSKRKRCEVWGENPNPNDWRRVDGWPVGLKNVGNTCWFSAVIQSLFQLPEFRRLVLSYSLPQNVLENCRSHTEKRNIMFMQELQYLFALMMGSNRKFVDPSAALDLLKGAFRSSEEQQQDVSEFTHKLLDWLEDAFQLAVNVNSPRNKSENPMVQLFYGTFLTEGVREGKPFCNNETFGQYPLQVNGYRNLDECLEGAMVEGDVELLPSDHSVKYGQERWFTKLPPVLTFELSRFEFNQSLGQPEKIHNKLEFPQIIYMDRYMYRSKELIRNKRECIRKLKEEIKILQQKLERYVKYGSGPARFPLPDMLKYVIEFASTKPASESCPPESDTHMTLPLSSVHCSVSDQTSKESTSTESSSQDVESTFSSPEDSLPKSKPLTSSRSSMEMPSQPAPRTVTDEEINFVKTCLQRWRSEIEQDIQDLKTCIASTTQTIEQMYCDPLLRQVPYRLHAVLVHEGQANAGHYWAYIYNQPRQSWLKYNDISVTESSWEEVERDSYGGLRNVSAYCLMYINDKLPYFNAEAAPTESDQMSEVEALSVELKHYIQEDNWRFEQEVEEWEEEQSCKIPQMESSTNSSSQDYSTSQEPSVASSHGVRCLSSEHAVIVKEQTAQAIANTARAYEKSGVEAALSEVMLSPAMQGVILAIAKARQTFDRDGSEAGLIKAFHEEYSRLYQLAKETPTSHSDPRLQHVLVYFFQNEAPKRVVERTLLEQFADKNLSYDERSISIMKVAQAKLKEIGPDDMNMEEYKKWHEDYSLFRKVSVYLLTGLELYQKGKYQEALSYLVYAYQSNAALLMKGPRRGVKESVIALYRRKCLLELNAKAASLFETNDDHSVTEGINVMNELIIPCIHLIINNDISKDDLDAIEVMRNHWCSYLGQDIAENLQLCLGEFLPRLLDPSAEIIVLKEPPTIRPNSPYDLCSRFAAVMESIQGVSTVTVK
Experiment: Ubiquitin-Rhodamine 110 Assay for USP28 Activity, Example A-1(a)
Type: biochemical
Settings: Ubiquitin-Rhodamine 110 assay, Example A-1(a); read-out: USP28 A-1(a) IC50 range
Method in brief: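 IC50 from 4-parameter logistic fit of percent inhibition versus no-enzyme and DMSO controls; compounds 25 μM to 1.3 nM, 3-fold. Ub-Rh110 cleavage (25 nM, below Km) by […] mammalian-expressed USP28-FL-His ran 45 min at room temperature, stopped with 10 mM citric acid, read ex 485/em 535.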

SMILES	IC50 [nM]
O=C(N[C@H]1COc2cc(N3CCNCC3)ccc2C1)c1cnc2c(ccn2Cc2ccccc2)c1 [Example 59, (R)-1-benzyl-N-(7-(piperazin-1-yl)chroman-3-yl)-1H-pyrrolo[2,3-b]pyridine-5-carboxamide]	1 to 50
Cc1ccc2c(N)c(C(=O)N[C@H]3CCc4nc(N5C[C@@H](N)[C@H](C(F)F)C5)ccc4C3)sc2n1 [Example 25, 3-Amino-N-[(6S)-2-[(3S,4R)-3-amino-4-(difluoromethyl)pyrrolidin-1-yl]-5,6,7,8-tetrahydroquinolin-6-yl]-6-methylthieno[2,3-b]pyridine-2-carboxamide]	50 to 200
CO[C@H]1CN(c2cc(F)c3c(c2F)OC[C@H](NC(=O)c2sc4nc(C)ccc4c2N)C3)C[C@@H]1N [Example 87, 3-amino-N-((R)-7-((3S,4S)-3-amino-4-methoxypyrrolidin-1-yl)-5,8-difluorochroman-3-yl)-6-methylthieno[2,3-b]pyridine-2-carboxamide]	1 to 50
Cc1nc2sc(C(=O)N[C@H]3COc4cc(N5CCNCC5)ncc4C3)c(N)c2cc1F [Example 72, (R)-3-amino-5-fluoro-6-methyl-N-(7-(piperazin-1-yl)-3,4-dihydro-2H-pyrano[3,2-c]pyridin-3-yl)thieno[2,3-b]pyridine-2-carboxamide]	1 to 50
CCn1ccc2cc(C(=O)N[C@H]3COc4c(F)c([C@H]5CCNC[C@H]5O)cc(F)c4C3)nnc21 [Example 85, N-((R)-5,8-difluoro-7-((3S,4R)-3-hydroxypiperidin-4-yl)chroman-3-yl)-7-ethyl-7H-pyrrolo[2,3-c]pyridazine-3-carboxamide]	200 to 2000
CCc1cnc2sc(C(=O)N[C@@H]3COc4cc(N5CCNCC5)ccc4C3)c(N)c2n1 [Example 37, (S)-7-amino-2-ethyl-N-(7-(piperazin-1-yl)chroman-3-yl)thieno[2,3-b]pyrazine-6-carboxamide]	> 2000
Cc1cnc2c(N)c(C(=O)N[C@H]3COc4cc(N5CC6CCC(C5)N6)c(F)cc4C3)sc2n1 (single isomer, unassigned) [Example 40]	1 to 50
O=C(N[C@H]1COc2c(F)c(N3CC4CCC(C3)N4)cc(F)c2C1)c1cnc2c(c1)[C@H]1C[C@H]1CN2 [Example 90, (1aR,7bS)-N-((3R)-7-(3,8-diazabicyclo[3.2.1]octan-3-yl)-5,8-difluorochroman-3-yl)-1a,2,3,7b-tetrahydro-1H-cyclopropa[c][1,8]naphthyridine-6-carboxamide]	200 to 2000
Cc1ccc2c(N)c(C(=O)N[C@H]3COc4cc([C@@H]5CCNC[C@H]5F)ccc4C3)sc2n1 [Example 81, 3-amino-N-((R)-7-((3S,4S)-3-fluoropiperidin-4-yl)chroman-3-yl)-6-methylthieno[2,3-b]pyridine-2-carboxamide]	1 to 50
Cc1ccc2c(N)c(C(=O)N[C@H]3CCc4nc(N5CCNCC5)cc(F)c4C3)sc2n1 [Example 23-17, 3-amino-N-[(6S)-4-fluoro-2-(piperazin-1-yl)-5,6,7,8-tetrahydroquinolin-6-yl]-6-methylthieno[2,3-b]pyridine-2-carboxamide]	1 to 50
O=C(N[C@H]1COc2c(F)c(N3CC4CCC(C3)N4)cc(F)c2C1)c1cnc2c(c1)[C@@H]1C[C@@H]1CN2 [Example 89, (1aS, 7bR)-N-((3R)-7-(3 8-diazabicyclo[3.2.1]octan-3-yl)-5,8-difluorochroman-3-yl)-1a,2,3,7b-tetrahydro-1H-cyclopropa[c][1,8]naphthyridine-6-carboxamide]	1 to 50
CO[C@@H]1CN(c2ccc3c(c2F)OC[C@H](NC(=O)c2sc4nc(C)ccc4c2N)C3)C[C@H]1N [Example 91, 3-amino-N-[(3R )-7-[(3R,4R)-3-amino-4-methoxypyrrolidin-1-yl]-8-fluoro-3,4-dihydro-2H-1-benzopyran-3-yl]-6-methylthieno[2,3-b]pyridine-2-carboxamide]	50 to 200
Cc1cc(C)c2c(N)c(C(=O)N[C@H]3CCc4nc(N5CCNCC5)ccc4C3)sc2n1 [Example 23-14, 3-amino-4,6-dimethyl-N-[(6S)-2-(piperazin-1-yl)-5,6,7,8-tetrahydroquinolin-6-yl]thieno[2,3-b]pyridine-2-carboxamide]	1 to 50
Cc1ccc2c(N)c(C(=O)N[C@H]3COc4cc([C@@H]5CCNC[C@H]5O)ccc4C3)sc2n1 [Example 65, 3-amino-N-((R)-7-((3S,4S)-3-hydroxypiperidin-4-yl)chroman-3-yl)-6-methylthieno[2,3-b]pyridine-2-carboxamide]	1 to 50
O=C(N[C@H]1COc2cc(N3CCNCC3)ccc2C1)c1cnc2c(c1)CC[C@H]2O [Example 57, (R)-7-hydroxy-N-((R)-7-(piperazin-1-yl)chroman-3-yl)-6,7-dihydro-5H-cyclopenta[b]pyridine-3-carboxamide]	> 2000
Cc1nc2sc(C(=O)N[C@H]3COc4cc(N5CCNCC5)c(F)c(F)c4C3)c(N)c2s1 [Example 66, (R)-6-amino-N-(5,6-difluoro-7-(piperazin-1-yl)chroman-3-yl)-2-methylthieno[2,3-d]thiazole-5-carboxamide]	1 to 50
Cc1ccc2c(N)c(C(=O)N[C@H]3COc4cc([C@@H]5CCNCC5(F)F)ccc4C3)sc2n1 [Example 70, 3-amino-N-((R)-7-((S)-3,3-difluoropiperidin-4-yl)chroman-3-yl)-6-methylthieno[2,3-b]pyridine-2-carboxamide]	1 to 50
O=C(N[C@H]1COc2cc(N3CC4CCC(C3)N4)ccc2C1)c1cnc2c(c1)CCCO2 [Example 51, N-((3R)-7-(3,8-diazabicyclo[3.2.1]octan-3-yl)chroman-3-yl)-3,4-dihydro-2H-pyrano[2,3-b]pyridine-6-carboxamide]	200 to 2000
Cc1ccc2c(N)c(C(=O)N[C@H]3COc4cc(N5C[C@@H]6CCNC[C@@H]65)ccc4C3)sc2n1 (single isomer, unassigned) [Example 33-3]	1 to 50
Cc1ccc2c(N)c(C(=O)N[C@H]3COc4cc(C5(C#N)CCS(=O)(=O)CC5)ccc4C3)sc2n1 [Example 34, 3-amino-N-[(3R)-7-(4-cyano-1,1-dioxo-1λ6-thian-4-yl)-3,4-dihydro-2H-1-benzopyran-3-yl]-6-methylthieno[2,3-b]pyridine-2-carboxamide]	1 to 50
Cc1ccc2c(N)c(C(=O)N[C@H]3Cc4ccc(N5CCNCC5)nc4C4(CC4)C3)sc2n1 (single isomer, unassigned) [Example 31-4, 3-amino-6-methyl-N-[(6′R)-2′-(piperazin-1-yl)-6′,7′-dihydro-5′H-spiro[cyclopropane-1,8′-quinoline]-6′-yl]thieno[2,3-b]pyridine-2-carboxamide]	1 to 50
Cc1cnc2c(N)c(C(=O)N[C@H]3COc4c(C#N)c(N5CC6CC(C5)N6)cc(F)c4C3)sc2n1 [Example 77, N-((3R)-7-(3,6-diazabicyclo[3.1.1]heptan-3-yl)-8-cyano-5-fluorochroman-3-yl)-7-amino-3-methylthieno[2,3-b]pyrazine-6-carboxamide]	50 to 200
Cc1ccc2c(N)c(C(=O)N[C@H]3COc4cc(N5CCNCC5)c(F)c(F)c4C3)sc2n1 [Example 61, (R)-3-amino-N-(5,6-difluoro-7-(piperazin-1-yl)chroman-3-yl)-6-methylthieno[2,3-b]pyridine-2-carboxamide]	1 to 50
